Here are results for 33 compounds from patent publication US20040082635A1, “Fused cyclic compounds and medicinal use thereof” (priority 2001, published 2004).

The structures appear in SMILES notation.

The term IC50 denotes the concentration needed to halve the response being measured.

T1 sequence (P26663 2420-3010): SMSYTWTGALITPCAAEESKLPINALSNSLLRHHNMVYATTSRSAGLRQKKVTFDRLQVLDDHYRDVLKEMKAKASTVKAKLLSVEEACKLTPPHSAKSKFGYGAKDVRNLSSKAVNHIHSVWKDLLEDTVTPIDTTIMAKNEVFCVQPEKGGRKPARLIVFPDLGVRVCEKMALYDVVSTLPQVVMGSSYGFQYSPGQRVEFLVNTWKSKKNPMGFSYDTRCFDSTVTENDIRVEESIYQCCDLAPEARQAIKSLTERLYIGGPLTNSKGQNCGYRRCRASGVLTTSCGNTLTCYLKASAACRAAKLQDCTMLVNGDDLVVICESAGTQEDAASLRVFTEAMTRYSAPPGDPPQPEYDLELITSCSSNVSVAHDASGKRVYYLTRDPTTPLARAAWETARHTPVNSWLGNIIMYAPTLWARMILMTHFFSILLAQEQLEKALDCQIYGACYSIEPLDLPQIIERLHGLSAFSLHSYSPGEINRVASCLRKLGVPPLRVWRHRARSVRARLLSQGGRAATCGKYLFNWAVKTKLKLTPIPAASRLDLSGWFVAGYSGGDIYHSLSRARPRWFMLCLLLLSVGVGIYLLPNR

This experiment has as its target T1, HCV polymerase (Hepatitis C virus genotype 1b, UniProt P26663).
T1 construct: a region encoding NS5B (591 amino acids; J Virol 1991 Mar, 65(3), 1105-13) was amplified by PCR; 6 His (N); made in house; host or cells: Escherichia coli
Kind of experiment: biochemical. The following applies: read-out: HCV polymerase inhibitory activity IC50.
With `COc1cc(OCc2ccccc2)ccc1-c1nc2cc(C(=O)O)ccc2n1C1CCCCC1` [Example 179, 2-(4-benzyloxy-2-methoxyphenyl)-1-cyclohexylbenzimidazole-5-carboxylic acid], the IC50 is 630 nM.

For `COc1ccc(Br)c(COc2ccc(-c3nc4cc(C(=O)O)ccc4n3C3CCCCC3)cc2)c1` [Example 180, 2-[4-(2-bromo-5-methoxybenzyloxy)phenyl]-1-cyclohexylbenzimidazole-5-carboxylic acid], the IC50 is 110 nM.

For the compound `O=C(O)c1ccc2c(c1)nc(-c1ccc(OC(C(=O)O)(c3ccccc3)c3ccccc3)cc1)n2C1CCCCC1` [Example 181, 2-[4-(carboxydiphenylmethoxy)phenyl]-1-cyclohexylbenzimidazole-5-carboxylic acid], the IC50 was determined as 710 nM.

For the compound `O=C(O)c1ccc2c(c1)nc(-c1ccc(OCc3cc([N+](=O)[O-])ccc3-c3ccc(Cl)cc3)cc1)n2C1CCCCC1` [Example 182, 2-{4-[2-(4-chlorophenyl)-5-nitrobenzyloxy]phenyl}-1-cyclohexylbenzimidazole-5-carboxylic acid], the IC50 stood at 21 nM.

Consider `O=C(O)c1ccc(-c2ccc(Cl)cc2COc2ccc(-c3nc4cc(C(=O)O)ccc4n3C3CCCCC3)cc2)cc1` [Example 184, 2-{4-[2-(4-carboxyphenyl)-5-chlorobenzyloxy]phenyl}-1-cyclohexylbenzimidazole-5-carboxylic acid], for which the IC50 is 18 nM.

On to `O=C(O)c1ccc2c(c1)nc(-c1ccc(OC[C@@H]3CCCN3C(=O)OCc3ccccc3)cc1)n2C1CCCCC1` [Example 185, 2-{4-[{(2S)-1-benzyloxycarbonyl-2-pyrrolidinyl}methoxy]phenyl}-1-cyclohexylbenzimidazole-5-carboxylic acid], for which the IC50 stood at 110 nM.

In the case of `O=C(O)c1ccc2c(c1)nc(-c1ccc(OCc3ccccc3-c3ccc(C(F)(F)F)cc3)cc1Cl)n2C1CCCCC1` [Example 186, 2-{2-chloro-4-[2-(4-trifluoromethylphenyl)benzyloxy]phenyl}-1-cyclohexylbenzimidazole-5-carboxylic acid], the IC50 was 370 nM.

`O=C(O)c1ccc2c(c1)nc(-c1ccc(Oc3cccc(OCc4ccccn4)c3)cc1)n2C1CCCCC1` [Example 187, 1-cyclohexyl-2-{4-[3-(2-pyridylmethoxy)phenoxy]phenyl}-benzimidazole-5-carboxylic acid]: the IC50 stood at 56 nM.

On to `O=C(O)c1ccc2c(c1)nc(-c1ccc(OCc3cc(F)ccc3-c3ccc(Cl)cc3)cc1)n2C1CCCCC1` [Example 188, 2-{4-[2-(4-chlorophenyl)-5-fluorobenzyloxy]phenyl}-1-cyclohexylbenzimidazole-5-carboxylic acid], for which the IC50 was 38 nM.

`O=C(O)c1ccc(-c2ccc(Cl)cc2)c(COc2ccc(-c3nc4cc(C(=O)O)ccc4n3C3CCCCC3)cc2)c1` [Example 189, 2-{4-[3-carboxy-6-(4-chlorophenyl)benzyloxy]phenyl}-1-cyclohexylbenzimidazole-5-carboxylic acid]: the IC50 was determined as 17 nM.

`CN(C)C(=O)COc1ccccc1Oc1ccc(-c2nc3cc(C(=O)O)ccc3n2C2CCCCC2)cc1` [Example 191, 1-cyclohexyl-2-{4-[2-(dimethylcarbamoylmethoxy)phenoxy]-phenyl}benzimidazole-5-carboxylic acid]: the IC50 was 430 nM.

As for `O=C(O)c1ccc2c(c1)nc(-c1ccc(Oc3ccccc3OCC(=O)N3CCCCC3)cc1)n2C1CCCCC1` [Example 192, 1-cyclohexyl-2-{4-[2-(piperidinocarbonylmethoxy)phenoxy]-phenyl}benzimidazole-5-carboxylic acid], the IC50 amounted to 220 nM.

Regarding `O=C(O)c1ccc2c(c1)nc(-c1ccc(OC[C@@H]3CCCN3S(=O)(=O)c3ccccc3)cc1)n2C1CCCCC1` [Example 193, 2-{4-[{(2S)-1-benzenesulfonyl-2-pyrrolidinyl}methoxy]phenyl}-1-cyclohexylbenzimidazole-5-carboxylic acid], the IC50 is 130 nM.

On to `O=C(O)c1ccc2c(c1)nc(-c1ccc(OC[C@@H]3CCCN3C(=O)c3ccccc3)cc1)n2C1CCCCC1` [Example 194, 2-{4-[{(2S)-1-benzoyl-2-pyrrolidinyl}methoxy]phenyl}-1-cyclohexylbenzimidazole-5-carboxylic acid], for which the IC50 was 520 nM.

As for `NC(=O)c1ccc(-c2ccc(Cl)cc2COc2ccc(-c3nc4cc(C(=O)O)ccc4n3C3CCCCC3)cc2)cc1` [Example 195, 2-{4-[2-(4-carbamoylphenyl)-5-chlorobenzyloxy]phenyl}-1-cyclohexylbenzimidazole-5-carboxylic acid], the IC50 came to 23 nM.

Consider `CN(C)C(=O)COc1cccc(Oc2ccc(-c3nc4cc(C(=O)O)ccc4n3C3CCCCC3)cc2)c1` [Example 196, 1-cyclohexyl-2-{4-[3-(dimethylcarbamoylmethoxy)phenoxy]phenyl}benzimidazole-5-carboxylic acid], for which the IC50 is 200 nM.

Consider `O=C(O)c1ccc2c(c1)nc(-c1ccc(Oc3cccc(OCC(=O)N4CCCCC4)c3)cc1)n2C1CCCCC1` [Example 197, 1-cyclohexyl-2-{4-[3-(piperidinocarbonylmethoxy)phenoxy]-phenyl}benzimidazole-5-carboxylic acid], for which the IC50 was determined as 110 nM.

For the compound `CS(=O)(=O)N1CCC(COc2cccc(Oc3ccc(-c4nc5cc(C(=O)O)ccc5n4C4CCCCC4)cc3)c2)CC1` [Example 198, 1-cyclohexyl-2-{4-[3-{(1-methanesulfonyl-4-piperidyl)methoxy}-phenoxy]phenyl}benzimidazole-5-carboxylic acid], the IC50 is 44 nM.

Regarding `Cc1nc(COc2ccc(-c3nc4cc(C(=O)O)ccc4n3C3CCCCC3)cc2)c(-c2ccc(Cl)cc2)o1` [Example 199, 1-cyclohexyl-2-{4-[{2-methyl-5-(4-chlorophenyl)-4-oxazolyl}-methoxy]phenyl}benzimidazole-5-carboxylic acid], the IC50 was 110 nM.

`O=C(O)c1ccc2c(c1)nc(-c1ccc(Oc3cccc(OCc4cccc(Cl)c4)c3)cc1)n2C1CCCCC1` [Example 200, 2-{4-[3-(3-chlorobenzyloxy)phenoxy]phenyl}-1-cyclohexylbenzimidazole-5-carboxylic acid]: the IC50 stood at 100 nM.

For the compound `O=C(O)c1ccc2c(c1)nc(-c1ccc(Oc3cccc(OCc4ccc(Cl)cc4)c3)cc1)n2C1CCCCC1` [Example 201, 2-{4-[3-(4-chlorobenzyloxy)phenoxy]phenyl}-1-cyclohexylbenzimidazole-5-carboxylic acid], the IC50 stood at 140 nM.

Consider `O=C(O)c1ccc2c(c1)nc(-c1ccc(Oc3cccc(OCc4ccc(F)cc4)c3)cc1)n2C1CCCCC1` [Example 202, 1-cyclohexyl-2-{4-[3-(4-fluorobenzyloxy)phenoxy]phenyl}-benzimidazole-5-carboxylic acid], for which the IC50 came to 95 nM.

For `O=C(O)c1ccc2c(c1)nc(-c1ccc(OC[C@@H]3CCCN3c3ccc([N+](=O)[O-])cc3)cc1)n2C1CCCCC1` [Example 203, 1-cyclohexyl-2-{4-[{(2S)-1-(4-nitrophenyl)-2-pyrrolidinyl}-methoxy]phenyl}benzimidazole-5-carboxylic acid], the IC50 came out at 63 nM.

On to `CC(=O)Nc1ccc(N2CCC[C@H]2COc2ccc(-c3nc4cc(C(=O)O)ccc4n3C3CCCCC3)cc2)cc1` [Example 205, 2-{4-[{(2S)-1-(4-acetylaminophenyl)-2-pyrrolidinyl}methoxy]-phenyl}-1-cyclohexylbenzimidazole-5-carboxylic acid], for which the IC50 is 77 nM.

As to `Cc1nc(COc2ccc(-c3nc4cc(C(=O)O)ccc4n3C3CCCCC3)cc2)c(-c2ccc(Cl)cc2)s1` [Example 206, 2-{4-[{5-(4-chlorophenyl)-2-methyl-4-thiazolyl}methoxy]phenyl}-1-cyclohexylbenzimidazole-5-carboxylic acid], the half-maximal inhibitory concentration (IC50) turned out to be 50 nM.

`O=C(O)c1ccc2c(c1)nc(-c1ccc(OCc3cccc([N+](=O)[O-])c3-c3ccc(Cl)cc3)cc1)n2C1CCCCC1` [Example 208, 1-cyclohexyl-2-{4-[2-(4-chlorophenyl)-3-nitrobenzyloxy]phenyl}-benzimidazole-5-carboxylic acid]: the IC50 was determined as 39 nM.

As to `O=C(O)c1ccc2c(c1)nc(-c1ccc(Oc3cccc(OC4CCOCC4)c3)cc1)n2C1CCCCC1` [Example 209, 1-cyclohexyl-2-{4-[3-(4-tetrahydropyranyloxy)phenoxy]phenyl}-benzimidazole-5-carboxylic acid], the IC50 amounted to 120 nM.

As to `O=C(O)c1ccc2c(c1)nc(-c1ccc(Oc3cccc(OCc4ccc(C(F)(F)F)cc4)c3)cc1)n2C1CCCCC1` [Example 210, 1-cyclohexyl-2-{4-[3-(4-trifluoromethylbenzyloxy)phenoxy]phenyl}-benzimidazole-5-carboxylic acid], the IC50 is 310 nM.

Take `CN1CCC(COc2cccc(Oc3ccc(-c4nc5cc(C(=O)O)ccc5n4C4CCCCC4)cc3)c2)CC1` [Example 211, 1-cyclohexyl-2-{4-[3-{(1-methyl-4-piperidyl)methoxy}phenoxy]-phenyl}benzimidazole-5-carboxylic acid]: the IC50 was 59 nM.

On to `CC(C)(C)c1ccc(COc2cccc(Oc3ccc(-c4nc5cc(C(=O)O)ccc5n4C4CCCCC4)cc3)c2)cc1` [Example 212, 2-{4-[3-(4-tert-butylbenzyloxy)phenoxy]phenyl}-1-cyclohexylbenzimidazole-5-carboxylic acid], for which the IC50 was determined as 230 nM.

As for `O=C(O)c1ccc2c(c1)nc(-c1ccc(Oc3cccc(OCc4ccccc4Cl)c3)cc1)n2C1CCCCC1` [Example 213, 2-{4-[3-(2-chlorobenzyloxy)phenoxy]phenyl}-1-cyclohexylbenzimidazole-5-carboxylic acid], the IC50 was determined as 100 nM.

Take `O=C(O)c1ccc2c(c1)nc(-c1ccc(Oc3cccc(-c4cccnc4)c3)cc1)n2C1CCCCC1` [Example 214, 1-cyclohexyl-2-{4-[3-(3-pyridyl)phenoxy]phenyl}benzimidazole-5-carboxylic acid]: the IC50 was 59 nM.

For the compound `O=C(O)c1ccc2c(c1)nc(-c1ccc(Oc3cccc(-c4ccc(Cl)cc4)c3)cc1)n2C1CCCCC1` [Example 215, 2-{4-[3-(4-chlorophenyl)phenoxy]phenyl}-1-cyclohexylbenzimidazole-5-carboxylic acid], the IC50 amounted to 78 nM.
